This is an account of results in US20250034089A1, “TETRAHYDROCARBAZOLE COMPOUND, AND PHARMACEUTICAL COMPOSITION AND USE THEREOF” (NAIN BIOTECH (HANGZHOU) CO., LTD., priority 2021, published 2025).

Structures are written as SMILES.

For assay [1], the target named is T1, OCT4 protein (Homo sapiens, UniProt Q01860).
T1 construct: HeLa cell line 3A11 with endogenous high expression of OCT4; endogenous in cells; host or cells: HeLa cell line 3A11
As to the kind of experiment: Inhibitory effect on OCT4 protein in HeLa cells (Western blot). Particulars: FIG. 2. It counts as cell-based. The text has this:
• 1) Cell source: HeLa cell line 3A11 with endogenous high expression of OCT4, constructed by the inventor's laboratory (Zhou Y et al. Endogenous authentic OCT4A proteins directly regulate FOS/AP-1 transcription in physiological cancer cells. Cell Death Dis. 2018, 9:585). • 2) Cell culture and passage: All of the above cells were adherently cultured in complete culture medium [to a 6-cm culture dish (#430166, Corning) or T75 culture bottle (#3276, Corning) containing DMEM high-sugar basal medium (#SH30243.01B, HyClone) was added a final concentration of 10% FBS (#1101-500, Shanghai Pufei) and Penicillin-Streptomycin dual antibody (#SV30010, HyClone)]. The culture dish (bottle) was placed in a cell culture incubator (#3111, Thermo Fisher Scientific) at 37° C., 5% CO2, and saturated humidity. […] The supernatant was discarded, and the cell clumps were resuspended with fresh complete culture medium, blown into single cells again, passaged and inoculated into new culture dishes (bottles) in a ratio of 1:3-1:6, the complete culture medium was supplemented, and then placed in a cell culture incubator at 37° C. and 5% CO2 for culture. • 3) Cell dosing treatment: The above-mentioned HeLa cells were digested, counted, and inoculated into each well of the 96 well cell culture plate (#3988, Corning) at a density of 5000 cells/200 μl culture medium. […]

Assay [2] deals with tumor microspheres. As to the kind of experiment: Generation of tumor microspheres by tumor cells (HeLa, Caski, Hep3B, Huh7). It counts as cell-based, human. Particulars: 1 or 10 μM, 48 hours, FIG. 5. As to the method:
• 1) Cell sources: cervical cancer cells HeLa and Caski, liver cancer cells Hep3B and Huh7 were all purchased from the Chinese Academy of Sciences cell bank (Shanghai). • 2) Tumor microsphere culture: The specific culture method for tumor microspheres can be found in the literature (Cheng J et al. Tryptophan derivatives regulate the transfer of Oct4 in stem-like cancer cells. Nat Commun. 2015, 6:7209). Each tumor cell was cultured separately in a medium containing 2% B27, 10 ng/ml BFGF, 5 ng/ml EGF, and 10 ng/ml LIF to form CSC rich tumor microspheres. • 3) Cell dosing treatment: HeLa cell lines and Huh7 cell lines were inoculated in a 6-well plate containing the aforementioned culture medium at a density of 200 cells per well, while Hep3B cell lines and Caski cell lines were inoculated in a 6-well plate containing the aforementioned culture medium at a density of 2000 cells per well. KZT-A5 or AH057 at concentrations of 1 μM or 10 μM was added, and the morphology of tumor microspheres was observed, photographed and recorded after 48 hours of treatment.

T1 sequence (Q01860 whole entry): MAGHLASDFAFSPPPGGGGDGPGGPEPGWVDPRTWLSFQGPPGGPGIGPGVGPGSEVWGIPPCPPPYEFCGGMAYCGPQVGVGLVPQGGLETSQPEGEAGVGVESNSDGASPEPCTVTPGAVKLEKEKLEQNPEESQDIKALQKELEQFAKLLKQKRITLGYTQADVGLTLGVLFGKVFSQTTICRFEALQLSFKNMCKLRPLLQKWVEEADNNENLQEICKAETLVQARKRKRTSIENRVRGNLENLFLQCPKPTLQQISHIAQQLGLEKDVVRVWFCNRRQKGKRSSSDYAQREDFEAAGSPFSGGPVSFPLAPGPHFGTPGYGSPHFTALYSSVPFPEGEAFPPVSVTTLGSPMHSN

Regarding `COc1cc(/C=C2\CCc3c([nH]c4ccc(C)cc34)C2=O)ccc1O` [KZT-A5], in assay [1] (HeLa 3A11, 10 μM vs 100 μM), the “dose dependence of inhibition of OCT4 protein expression” value is reported as “dose-dependently inhibit the expression of OCT4 protein”. For the same compound, the “inhibitory effect on OCT4 protein (downregulation)” value in assay [1] (HeLa cell line 3A11, 48-72 hours) is reported as “most significant effect in downregulating OCT4 protein”. Further, the “inhibition of generation of tumor microspheres” value in assay [2] was “dose-dependently inhibit the generation of tumor microspheres”.
